In patent US11591336B2 (Relay Therapeutics, Inc., priority 2017, dated 2023):
Counter-ions that a name gives are not always drawn.

What follows are compounds tested against SHP2 (Homo sapiens (Human), UniProt Q06124) (assay: SHP2 Allosteric Inhibition Assay (DiFMUP prompt fluorescence)). Conditions: 0.25 nM SHP2 activated with 0.5 μM peptide IRS1_pY1172(dPEG8)pY1222; substrate DiFMUP 100 μM; 25° C.
Format: biochemical

IC50 [nM] | Compound
< 1000 | C[C@@H]1OCC2(CCN(c3cnc4c(N5CCCc6c(N=S(C)(C)=O)cccc65)n[nH]c4n3)CC2)[C@@H]1N [Compound 418]
< 1000 | CN=[S@](C)(=O)c1cccc2c1CCCN2c1n[nH]c2nc(N3CCC4(CC3)CO[C@@H](C)[C@H]4N)cnc12 [Compound 419]
< 1000 | CN=[S@@](C)(=O)c1cccc2c1CCCN2c1n[nH]c2nc(N3CCC4(CC3)CO[C@@H](C)[C@H]4N)cnc12 [Compound 420]
< 1000 | C[C@@H]1OCC2(CCN(c3cnc4c(N5CCCc6c5cccc6[S@@](C)(=N)=O)n[nH]c4n3)CC2)[C@@H]1N [Compound 421]
< 1000 | C[C@@H]1OCC2(CCN(c3cnc4c(N5CCCc6c5cccc6[S@](C)(=N)=O)n[nH]c4n3)CC2)[C@@H]1N [Compound 422]
< 1000 | C[C@@H]1OCC2(CCN(c3cnc4c(N5CCN(CC(=O)O)c6cc(C#N)ccc65)n[nH]c4n3)CC2)[C@@H]1N [Compound 423, 2-(4-{6-[(3S,4S)-4-amino-3-methyl-2-oxa-8-azaspiro[4.5]decan-8-yl]-1H-pyrazolo[3,4-b]pyrazin-3-yl}-7-cyano-1,2,3,4-tetrahydroquinoxalin-1-yl)acetic acid]
< 1000 | C[C@@H]1OCC2(CCN(c3cnc4c(N5CCCc6c5ccnc6-c5nccs5)n[nH]c4n3)CC2)[C@@H]1N [Compound 424]
< 1000 | CNC(=O)Cc1ccc2c(n1)CCCN2c1n[nH]c2nc(N3CCC4(CC3)CO[C@@H](C)[C@H]4N)cnc12 [Compound 425, 2-(5-{6-[(3S,4S)-4-amino-3-methyl-2-oxa-8-azaspiro[4.5]decan-8-yl]-1H-pyrazolo[3,4-b]pyrazin-3-yl}-5,6,7,8-tetrahydro-1,5-naphthyridin-2-yl)-N-methylacetamide]
< 1000 | CO/N=C/c1ccc2c(c1)[C@@H](C)CCN2c1n[nH]c2nc(N3CCC4(CC3)CO[C@@H](C)[C@H]4N)cnc12 [Compound 426, (3S,4S)-8-{3-[(4S)-6-[(1E)-(methoxyimino)methyl]-4-methyl-1,2,3,4-tetrahydroquinolin-1-yl]-1H-pyrazolo[3,4-b]pyrazin-6-yl}-3-methyl-2-oxa-8-azaspiro[4.5]decan-4-amine]
< 1000 | C[C@@H]1OCC2(CCN(c3cnc4c(N5CCCc6nc(C7=CCNCC7)ccc65)n[nH]c4n3)CC2)[C@@H]1N [Compound 427, (3S,4S)-3-methyl-8-{3-[6-(1,2,3,6-tetrahydropyridin-4-yl)-1,2,3,4-tetrahydro-1,5-naphthyridin-1-yl]-1H-pyrazolo[3,4-b]pyrazin-6-yl}-2-oxa-8-azaspiro[4.5]decan-4-amine hydrochloride]
< 1000 | Cc1nnc(-c2c(Cl)ccc3c2CCCN3c2n[nH]c3nc(N4CCC5(CC4)CO[C@@H](C)[C@H]5N)cnc23)o1 [Compound 429, (3S,4S)-8-{3-[6-chloro-5-(5-methyl-1,3,4-oxadiazol-2-yl)-1,2,3,4-tetrahydroquinolin-1-yl]-1H-pyrazolo[3,4-b]pyrazin-6-yl}-3-methyl-2-oxa-8-azaspiro[4.5]decan-4-amine]
< 1000 | C[C@@H]1OCC2(CCN(c3cnc4c(N5CC[C@H](C)c6nc(-c7ccn[nH]7)ccc65)n[nH]c4n3)CC2)[C@@H]1N [Compound 430, (3S,4S)-3-methyl-8-{3-[(4S)-4-methyl-6-(1H-pyrazol-5-yl)-1,2,3,4-tetrahydro-1,5-naphthyridin-1-yl]-1H-pyrazolo[3,4-b]pyrazin-6-yl}-2-oxa-8-azaspiro[4.5]decan-4-amine]
< 1000 | C[C@@H]1OCC2(CCN(c3cnc4c(N5CCCc6c(CO)cccc65)n[nH]c4n3)CC2)[C@@H]1N [Compound 431, (1-{6-[(3S,4S)-4-amino-3-methyl-2-oxa-8-azaspiro[4.5]decan-8-yl]-1H-pyrazolo[3,4-b]pyrazin-3-yl}-1,2,3,4-tetrahydroquinolin-5-yl)methanol]
< 1000 | C[C@@H]1CCN(c2n[nH]c3nc(N4CCC5(CC4)CO[C@@H](C)[C@H]5N)cnc23)c2ccc(-c3ccn[nH]3)nc21 [Compound 432]
< 1000 | C[C@@H]1OCC2(CCN(c3cnc4c(N5CCCc6c(-c7ncon7)cccc65)n[nH]c4n3)CC2)[C@@H]1N [Compound 433, (3S,4S)-3-methyl-8-{3-[5-(1,2,4-oxadiazol-3-yl)-1,2,3,4-tetrahydroquinolin-1-yl]-1H-pyrazolo[3,4-b]pyrazin-6-yl}-2-oxa-8-azaspiro[4.5]decan-4-amine]
< 1000 | CNC(=O)Cc1cccc2c1CCCN2c1n[nH]c2nc(N3CCC4(CC3)CO[C@@H](C)[C@H]4N)cnc12 [Compound 434, 2-(1-{6-[(3S,4S)-4-amino-3-methyl-2-oxa-8-azaspiro[4.5]decan-8-yl]-1H-pyrazolo[3,4-b]pyrazin-3-yl}-1,2,3,4-tetrahydroquinolin-5-yl)-N-methylacetamide hydrochloride]
< 1000 | C[C@@H]1OCC2(CCN(c3cnc4c(N5CCCc6c(CCO)cccc65)n[nH]c4n3)CC2)[C@@H]1N [Compound 435]
< 1000 | C[C@@H]1OCC2(CCN(c3cnc4c(N5CCCc6nc(/C=N\O)ccc65)n[nH]c4n3)CC2)[C@@H]1N [Compound 436, (3S,4S)-8-(3-{6-[(1Z)-(hydroxyimino)methyl]-1,2,3,4-tetrahydro-1,5-naphthyridin-1-yl}-1H-pyrazolo[3,4-b]pyrazin-6-yl)-3-methyl-2-oxa-8-azaspiro[4.5]decan-4-amine hydrochloride]
< 1000 | CC(C)NC(=O)c1ccc2c(n1)[C@H](C)CCN2c1n[nH]c2nc(N3CCC4(CC3)CO[C@@H](C)[C@H]4N)cnc12 [Compound 438]
< 1000 | C[C@@H]1OCC2(CCN(c3cnc4c(N5CCN(CCO)c6cc(C#N)ccc65)n[nH]c4n3)CC2)[C@@H]1N [Compound 439]
< 1000 | C[C@@H]1OCC2(CCN(c3cnc4c(N5CCN(C)c6c(-c7cnn(C)c7)cccc65)n[nH]c4n3)CC2)[C@@H]1N [Compound 440]

IC50 [nM] | Compound
< 1000 | C[C@@H]1OCC2(CCN(c3cnc4c(N5CCCc6c(CC#N)cccc65)n[nH]c4n3)CC2)[C@@H]1N [Compound 441]
< 1000 | COCCNC(=O)c1ccc2c(n1)[C@@H](C)CCN2c1n[nH]c2nc(N3CCC4(CC3)CO[C@@H](C)[C@H]4N)cnc12 [Compound 443]
< 1000 | CO/N=C/c1ccc2c(n1)[C@@H](C)CCN2c1n[nH]c2nc(N3CCC4(CC3)CO[C@@H](C)[C@H]4N)cnc12 [Compound 444, (3S,4S)-8-{3-[(4S)-6-[(1E)-(methoxyimino)methyl]-4-methyl-1,2,3,4-tetrahydro-1,5-naphthyridin-1-yl]-1H-pyrazolo[3,4-b]pyrazin-6-yl}-3-methyl-2-oxa-8-azaspiro[4.5]decan-4-amine hydrochloride]
< 1000 | C[C@@H]1OCC2(CCN(c3cnc4c(N5CC[C@H](C)c6nc(C(=O)NCc7cccnc7)ccc65)n[nH]c4n3)CC2)[C@@H]1N [Compound 445]
< 1000 | CC(C)NC(=O)c1ccc2c(n1)[C@@H](C)CCN2c1n[nH]c2nc(N3CCC4(CC3)CO[C@@H](C)[C@H]4N)cnc12 [Compound 446]
< 1000 | C[C@@H]1OCC2(CCN(c3cnc4c(N5CC[C@H](C)c6nc(C(=O)NCCO)ccc65)n[nH]c4n3)CC2)[C@@H]1N [Compound 447]
< 1000 | C[C@@H]1CCN(c2n[nH]c3nc(N4CCC5(CC4)CO[C@@H](C)[C@H]5N)cnc23)c2ccc(-c3nnc[nH]3)nc21 [Compound 452, dihydrochloride]
< 1000 | C[C@@H]1OCC2(CCN(c3cnc4c(N5CCN(CC(=O)N(C)C)c6cc(C#N)ccc65)n[nH]c4n3)CC2)[C@@H]1N [Compound 453, 2-(4-{6-[(3S,4S)-4-amino-3-methyl-2-oxa-8-azaspiro[4.5]decan-8-yl]-1H-pyrazolo[3,4-b]pyrazin-3-yl}-7-cyano-1,2,3,4-tetrahydroquinoxalin-1-yl)-N,N-dimethylacetamide]
< 1000 | C[C@@H]1OCC2(CCN(c3cnc4c(N5CC[C@H](C)c6nc(-c7nnc[nH]7)ccc65)n[nH]c4n3)CC2)[C@@H]1N [Compound 454, (3S,4S)-3-methyl-8-{3-[(4S)-4-methyl-6-(4H-1,2,4-triazol-3-yl)-1,2,3,4-tetrahydro-1,5-naphthyridin-1-yl]-1H-pyrazolo[3,4-b]pyrazin-6-yl}-2-oxa-8-azaspiro[4.5]decan-4-amine]
< 1000 | C[C@@H]1OCC2(CCN(c3cnc4c(N5CCCc6c(CS(C)(=O)=O)cccc65)n[nH]c4n3)CC2)[C@@H]1N [Compound 455]
< 1000 | CC(C)S(=O)(=O)c1cccc2c1CCCN2c1n[nH]c2nc(N3CCC4(CC3)CO[C@@H](C)[C@H]4N)cnc12 [Compound 456]
< 1000 | C[C@@H]1OCC2(CCN(c3cnc4c(N5CCCc6c5cccc6S(=O)(=O)C5CC5)n[nH]c4n3)CC2)[C@@H]1N [Compound 457]
< 1000 | C[C@@H]1OCC2(CCN(c3cnc4c(N5CCCc6c(CN7CCOCC7)cccc65)n[nH]c4n3)CC2)[C@@H]1N [Compound 458]
< 1000 | C[C@@H]1OCC2(CCN(c3cnc4c(N5CCCc6c(CN7CCOC7=O)cccc65)n[nH]c4n3)CC2)[C@@H]1N [Compound 459]
< 1000 | COCCS(=O)(=O)c1cccc2c1CCCN2c1n[nH]c2nc(N3CCC4(CC3)CO[C@@H](C)[C@H]4N)cnc12 [Compound 460]
< 1000 | COC(=O)Cc1cccc2c1CCCN2c1n[nH]c2nc(N3CCC4(CC3)CO[C@@H](C)[C@H]4N)cnc12 [Compound 461]
< 1000 | C=C(C)c1cccc2c1CCCN2c1n[nH]c2nc(N3CCC4(CC3)CO[C@@H](C)[C@H]4N)cnc12 [Compound 462]
< 1000 | C[C@@H]1OCC2(CCN(c3cnc4c(N5CCCc6c5cccc6S(=O)(=O)C5COC5)n[nH]c4n3)CC2)[C@@H]1N [Compound 464]
< 1000 | C[C@@H]1OCC2(CCN(c3cnc4c(N5CCCc6c5cccc6S(=O)(=O)c5cnn(C)c5)n[nH]c4n3)CC2)[C@@H]1N [Compound 465]
< 1000 | CC(=O)N(C)Cc1cccc2c1CCCN2c1n[nH]c2nc(N3CCC4(CC3)CO[C@@H](C)[C@H]4N)cnc12 [Compound 466]
< 1000 | N[C@@H]1C[C@H](O)CC12CCN(c1cnc3c(N4CCCc5ncccc54)n[nH]c3n1)CC2 [Compound 467, (2R,4R)-4-amino-8-[3-(1,2,3,4-tetrahydro-1,5-naphthyridin-1-yl)-1H-pyrazolo[3,4-b]pyrazin-6-yl]-8-azaspiro[4.5]decan-2-ol]
